In general, IC50 refers to the concentration at which inhibition is half-maximal. A lower IC50 goes with greater potency in that assay.

One test concerns Aβ1-40 peptide secretion. In words: Quantification of secreted Aβ1-40 by ELISA in SY5Y-APP695WT cells. The format is cell-based. To be noted: Homo sapiens; concentration inhibiting 50% of Aβ1-40 peptide secretion in SY5Y cells; 24 h treatment; mean ± SD of at least two experiments in triplicate. As to the method:
(§1) Cell culture and treatment. The human neuroblastoma cell line […] was maintained in Dulbecco's modified Eagle medium (DMEM, high glucose, pyruvate-GIBCO by Life Technologies) supplemented with 10% foetal bovine serum, 2 mM L-glutamine, 1 mM non-essential amino acids and penicillin/streptomycin (GIBCO by Life Technologies) at 37° C. in a 5% CO2 humidified incubator. […] cells were maintained in 75 cm^2 culture flasks (Falcon) with supplemented DMEM medium until they reached 80% of confluence 24 h before treatment. For compounds treatment, a 10 mM stock solution was diluted in freshly supplemented DMEM medium to obtain the precise final concentration of drug. Bafilomycin A1 (BafA1), the vacuolar […] type H+ ATPase inhibitor, was purchased from Merck Millipore and was used at a final dilution of 100 nM. For drug treatment, cells were plated at a rate of 5·10^5 cells per well into 12-well plates (Falcon) and cultured with 1 mL supplemented DMEM cell medium for 24 h before drug exposure. The following day, cell medium was replaced with fresh medium containing drugs diluted at the indicated concentrations. Cells were treated for 24 h. At the end of treatments, the cell medium was collected and kept at -80° C. until use for dosage. Then, cells were rinsed once with PBS and extracted in 100 μL of Laemmli buffer (10 mM Tris, 20% glycerol and 2% Sodium dodecyl sulfate) using a cell-scraper. The cell lysate was further sonicated (30 pulses of 0.5 s, 60 Hz) for 5 min. Total protein concentration was determined using the Pierce BCA Protein Assay Kit (Thermo scientific) according to the manufacturer's instructions. Samples were stored at -80° C. until analysis. Quantification of secreted Aβ1-40/1-42 and sAPPα/sAPPβ. Conditioned media of […] collected at the end of treatments were centrifuged at 1000 g for 5 min to eliminate cells debris. Aβ1-40 and Aβ1-42 peptide concentrations in […] were determined using amyloid-beta 40 and 42 Human ELISA kits (Invitrogen) according to the manufacturer's instructions after 1:10 and 1:2 dilutions of supernatants in ELISA buffer, respectively. sAPPα and sAPPβ concentrations in ng/mL were determined using the sAPPα/sAPPβ kit (Meso Scale Diagnostics, MSD®) according to the manufacturer's instructions. Compounds of the invention (compounds 24-37, 41, 44 and 51-58) were evaluated for their ability to modulate APP processing on SY5Y human neuroblastoma cell line stably expressing the neuronal isoform of human wild-type APP695 (SYSY-APPwt). Aβ levels (Aβ1-40 and Aβ1-42) after treatment with reference and tested compounds were measured by ELISA (Table 2). […] APP carboxy-terminal fragments (αCTFs and AICD) were measured by Western blot and quantified. The effect of reference and tested compounds on αCTFs and AICD are expressed as the intensity of corresponding western-blot bands resulting from the secretase cleavages.

The test system of another test is Aβ1-42 peptide secretion. In words: Quantification of secreted Aβ1-42 by ELISA in SY5Y-APP695WT cells. The format is cell-based. To be noted: Homo sapiens; concentration inhibiting 50% of Aβ1-42 peptide secretion in SY5Y cells; 24 h treatment; mean ± SD of at least two experiments in triplicate. As to the method:
as §1
In general terms: In an ELISA, binding on a coated surface is turned into a signal by an enzyme label.

Another test has as its system CTFα. In words: APP carboxy-terminal fragment αCTF by Western blot in SY5Y-APP695WT cells. The format is cell-based, human. To be noted: CTFα increase compared to chloroquine ([CTF]compound/[CTF]CQ) at 3 μM; mean of at least three experiments. The text has this:
(§2) Antibodies. Primary antibodies used in this study for western-blot analysis included a homemade rabbit antiserum against the last 17 amino acids of human APP protein sequence, named APP-Cter-C17 (1/5000 in TBS-M). Anti-β-actin (1/10 000 in TBS-M) was obtained from Sigma. Anti-LC3B (1/2000 in TBS-BSA) and anti-p62/SQSTM1 (1/2000 in TBS-M) antibodies were purchased from Cell Signaling Technology. Secondary antibodies (peroxidase-labeled goat anti-rabbit IgG, 1/5000 or peroxidase-labeled horse anti-mouse IgG, 1/50000 in TBS-T) were obtained from Vector Laboratories.
(§3) Cell culture and treatment. The human neuroblastoma cell line SY5Y-APP^695WT was maintained in Dulbecco's modified Eagle medium (DMEM, high glucose, pyruvate—GIBCO by Life Technologies) supplemented with 10% foetal bovine serum, 2 mM L-glutamine, 1 mM non-essential amino acids and penicillin/streptomycin (GIBCO by Life Technologies) at 37° C. in a 5% CO2 humidified incubator. SY5Y-APP^695WT cells were maintained in 75 cm^2 culture flasks (Falcon) with supplemented DMEM medium until they reached 80% of confluence 24 h before treatment.
(§4) For drug treatment, cells were plated at a rate of 5·10^5 cells per well into 12-well plates (Falcon) and cultured with 1 mL supplemented DMEM cell medium for 24 h before drug exposure. The following day, cell medium was replaced with fresh medium containing drugs diluted at the indicated concentrations. Cells were treated for 24 h. At the end of treatments, the cell medium was collected and kept at −80° C. until use for dosage. Then, cells were rinsed once with PBS and extracted in 100 μL of Laemmli buffer (10 mM Tris, 20% glycerol and 2% Sodium dodecyl sulfate) using a cell-scraper. The cell lysate was further sonicated (30 pulses of 0.5 s, 60 Hz) for 5 min. Total protein concentration was determined using the Pierce BCA Protein Assay Kit (Thermo scientific) according to the manufacturer's instructions. Samples were stored at −80° C. until analysis.
(§5) Western Blot Analysis. Cell protein lysates were prepared for western-blot analysis by diluting the sample with 1 volume of NuPAGE® lithium dodecyl sulfate (LDS) 2× sample buffer supplemented with 20% NuPAGE® sample reducing agents (Invitrogen). Samples were heat 10 min at 100° C. 10 μg of total proteins per well were loaded onto a precast 4-12% Criterion XT Bis-Tris polyacrylamide gel (Bio-Rad) and electrophoresis was achieved after applying a tension of 150 V during 90 min using a Criterion electrophoresis Cell with the NuPAGE® MOPS SDS running buffer (1×). Proteins were transferred to a nitrocellulose membrane of […] pore size (G&E Healthcare) using the Criterion blotting system and applying a tension of 100 V for 45 min. To resolve proteins of low molecular weights such as carboxy-terminal fragments of APP, 12% Criterion XT Bis-Tris polyacrylamide gels (Bio-Rad) were used and electrophoresis was performed during 70 min at 150 V in a NuPAGE® MES SDS running buffer (1×). Proteins were transferred to a nitrocellulose membrane of 0.2 μm pore size (G&E Healthcare) at 100 V for 40 min. Molecular weights calibration was achieved using molecular weight markers (Novex and Magic Marks, Life Technologies). Protein transfer and quality were determined by a reversible Ponceau Red coloration (0.2% Xylidine Ponceau Red and 3% Trichloroacetic acid). Membranes were then blocked in 25 mM Tris-HCl pH 8.0, 150 mM NaCl, 0.1% Tween-20 (v/v) (TBS-T) and 5% (w/v) of skimmed milk (TBS-M) or 5% (w/v) of bovine serum albumin (TBS-BSA) depending on the antibody during 1 h. Membrane was rinsed three-times 10 min in TBS-T before incubation with the primary antibody overnight at 4° C. Membrane was rinsed 3 times 10 min with TBS-T and then incubated with the secondary antibody for 45 min at room temperature (RT). […] Quantifications of protein expression levels were performed with ImageJ Software (NIH). […]
In general terms: In western blotting, separated proteins are transferred to a membrane and probed.

The subject of a further test is AICD. Briefly: AICD by Western blot in SY5Y-APP695WT cells. The following applies: AICD increase compared to chloroquine ([AICD]compound/[AICD]CQ) at 3 μM; mean of at least three experiments. The test is classed as cell-based, human.
Description: as §2, §3, §4, §5

Regarding `CN(C)Cc1ccccc1-c1ccc(NCCCN2CCCCC2)cc1` [Compound 44, 2′-((Dimethylamino)methyl)-N-(3-(piperidin-1-yl)propyl)-[1,1′-biphenyl]-4-amine], the IC50 with Aβ1-40 peptide secretion was 3900 ± 1000 nM; in the test with Aβ1-42 peptide secretion it was 3600 ± 100 nM. The “CTFα vs CQ (3 μM)” value in the test with CTFα was determined as 0.9. For the same compound, in the test on AICD, the “AICD vs CQ (3 μM)” value is 0.8.
Turning to `c1cn(-c2ccc(NCCCN3CCCCC3)c(OCCN3CCCCC3)c2)cc1CN1CCCCC1` [Compound 52, 2-[2-(Piperidin-1-yl)ethoxy]-N-[3-(piperidin-1-yl)propyl]-4-[3-(piperidin-1-ylmethyl)-1H-pyrrol-1-yl]aniline], the IC50 with Aβ1-40 peptide secretion came to 3700 ± 1300 nM; in the test on Aβ1-42 peptide secretion, 5000 ± 300 nM. Further, the “CTFα vs CQ (3 μM)” value in the test with CTFα turned out to be 3.3. Besides, the “AICD vs CQ (3 μM)” value in the test with AICD is on record as 1.2.
The matching figures for `c1cc(-c2ccc(NCCCN3CCCCC3)c(OCCN3CCCCC3)c2)ccc1CN1CCCCC1` [Compound 24, 2-[2-(Piperidin-1-yl)ethoxy]-N-[3-(piperidin-1-yl)propyl]-4-[4-(piperidin-1-ylmethyl)phenyl]aniline]: 2100 ± 600 nM, 3300 ± 2100 nM, 2.6 and 2.5.
Take `CN(C)Cc1ccc(-c2ccc(NCCCN3CCCCC3)c(OCCN3CCCCC3)c2)cc1` [Compound 25, 4-(4-[(Dimethylamino)methyl]phenyl)-2-[2-(piperidin-1-yl)ethoxy]-N-[3-(piperidin-1-yl)propyl]aniline]: the IC50 turned out to be 1500 ± 100 nM in the test with Aβ1-40 peptide secretion and 1700 ± 400 nM with Aβ1-42 peptide secretion. Also, the “CTFα vs CQ (3 μM)” value with CTFα is recorded as 2.1. Besides, in the test with AICD, the “AICD vs CQ (3 μM)” value came to 2.5.
As to `CN(C)Cc1ccccc1-c1ccc(NCCN2CCCCC2)c(OCCCCN2CCCCC2)c1` [Compound 35, 2′-((Dimethylamino)methyl)-3-(4-(piperidin-1-yl)butoxy)-N-(2-(piperidin-1-yl)ethyl)-[1,1′-biphenyl]-4-amine], the half-inhibitory concentration (IC50) was determined as 1600 ± 100 nM in the test on Aβ1-40 peptide secretion and 1600 ± 300 nM in the test with Aβ1-42 peptide secretion. Besides, the “CTFα vs CQ (3 μM)” value in the test with CTFα stood at 4.4. In addition, in the test on AICD, the “AICD vs CQ (3 μM)” value is reported as 4.8.
Regarding `c1ccc(-c2ccc(NCCCN3CCCCC3)c(OCCN3CCCCC3)c2)c(CN2CCOCC2)c1` [Compound 28, 4-[2-(Morpholin-4-ylmethyl)phenyl]-2-[2-(piperidin-1-yl)ethoxy]-N-[3-(piperidin-1-yl)propyl]aniline], the IC50 with Aβ1-40 peptide secretion turned out to be 2800 ± 1200 nM; with Aβ1-42 peptide secretion it was 4200 ± 1500 nM. The “CTFα vs CQ (3 μM)” value in the test on CTFα is listed as 3.1. In the test with AICD, the “AICD vs CQ (3 μM)” value is 1.7.
As for `CN(C)Cc1ccccc1-c1ccc(NCCCCN2CCCCC2)c(OCCN2CCCCC2)c1` [Compound 36, 2′-((Dimethylamino)methyl)-N-(4-(piperidin-1-yl)butyl)-3-(2-(piperidin-1-yl)ethoxy)-[1,1′-biphenyl]-4-amine], the IC50 in the test on Aβ1-40 peptide secretion is 1700 ± 300 nM; in the test on Aβ1-42 peptide secretion, 1600 ± 800 nM. Moreover, the “CTFα vs CQ (3 μM)” value in the test with CTFα is reported as 4.2. The “AICD vs CQ (3 μM)” value in the test on AICD is listed as 3.0.
Regarding `CN(C)Cc1ccccc1-c1ccc(NCCCN2CCCCC2)c(OCCCN2CCCCC2)c1` [Compound 32, 2′-((Dimethylamino)methyl)-3-(3-(piperidin-1-yl)propoxy)-N-(3-(piperidin-1-yl)propyl)-[1,1′-biphenyl]-4-amine], the IC50 in the test with Aβ1-40 peptide secretion came out at 2100 ± 300 nM; in the test on Aβ1-42 peptide secretion, 2000 ± 100 nM. The “CTFα vs CQ (3 μM)” value in the test on CTFα is recorded as 4.5. Also, in the test with AICD, the “AICD vs CQ (3 μM)” value came to 5.1.
With `c1ccc(-c2ccc(NCCCN3CCCCC3)c(OCCN3CCCCC3)c2)c(CN2CCCCC2)c1` [Compound 27, 2-[2-(Piperidin-1-yl)ethoxy]-N-[3-(piperidin-1-yl)propyl]-4-[2-(piperidin-1-ylmethyl)phenyl]aniline], the IC50 turned out to be 2600 ± 100 nM with Aβ1-40 peptide secretion and 4100 ± 1300 nM in the test with Aβ1-42 peptide secretion. Also, in the test on CTFα, the “CTFα vs CQ (3 μM)” value turned out to be 4.3. For the same compound, the “AICD vs CQ (3 μM)” value with AICD amounted to 2.7.
In the case of `c1cn(-c2ccc(NCCCN3CCCCC3)c(OCCN3CCCCC3)c2)cc1CN1CCOCC1` [Compound 53, 4-[3-(Morpholin-4-ylmethyl)-1H-pyrrol-1-yl]-2-[2-(piperidin-1-yl)ethoxy]-N-[3-(piperidin-1-yl)propyl]aniline], the IC50 in the test on Aβ1-40 peptide secretion stood at 3300 ± 200 nM; with Aβ1-42 peptide secretion, 3500 ± 1100 nM. For the same compound, in the test on CTFα, the “CTFα vs CQ (3 μM)” value is 1.7. In addition, in the test on AICD, the “AICD vs CQ (3 μM)” value is recorded as 3.3.

The record behind these values is patent US20210230131A1, “POLYAMINO BIARYL COMPOUNDS AND THEIR USE” (INSERM (INSTITUT NATIONAL DE LA SANTÉ ET DE LA RECHERCHE …, priority 2018, published 2021).
